Positions of bridges follow the written chain, without caps; N, C: chain ends. Residues, ends and D or L forms follow the SMILES beside them.
Assays:
[1] = target: T1, Opioid receptors; mu/kappa/delta (Homo sapiens, UniProt P41145+P41143+P35372); assay: Opioid receptors antagonist activity in smooth-muscle tissue of guinea pig ileum (GPI); format: functional, tissue-based, Cavia porcellus; conditions: target entry is the homologue from another species
[2] = target: T2, Opioid receptor (Mus musculus) (UniProt P42866+P32300+P33534); assay: Opioid receptors antagonist activity in smooth-muscle tissue mouse vas deferens (MVD) in presence of ICI; format: functional, tissue-based
T2 sequence (P32300 whole entry, looked up): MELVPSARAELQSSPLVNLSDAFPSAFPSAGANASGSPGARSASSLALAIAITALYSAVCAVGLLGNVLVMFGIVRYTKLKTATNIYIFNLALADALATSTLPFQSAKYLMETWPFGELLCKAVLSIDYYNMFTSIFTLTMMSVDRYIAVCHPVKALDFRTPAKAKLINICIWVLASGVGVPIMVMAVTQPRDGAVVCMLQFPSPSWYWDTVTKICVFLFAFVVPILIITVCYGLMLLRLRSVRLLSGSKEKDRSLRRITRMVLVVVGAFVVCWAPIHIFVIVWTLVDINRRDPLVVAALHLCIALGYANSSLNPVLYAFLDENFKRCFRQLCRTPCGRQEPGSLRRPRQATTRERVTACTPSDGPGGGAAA
T2 sequence (P33534 whole entry, looked up): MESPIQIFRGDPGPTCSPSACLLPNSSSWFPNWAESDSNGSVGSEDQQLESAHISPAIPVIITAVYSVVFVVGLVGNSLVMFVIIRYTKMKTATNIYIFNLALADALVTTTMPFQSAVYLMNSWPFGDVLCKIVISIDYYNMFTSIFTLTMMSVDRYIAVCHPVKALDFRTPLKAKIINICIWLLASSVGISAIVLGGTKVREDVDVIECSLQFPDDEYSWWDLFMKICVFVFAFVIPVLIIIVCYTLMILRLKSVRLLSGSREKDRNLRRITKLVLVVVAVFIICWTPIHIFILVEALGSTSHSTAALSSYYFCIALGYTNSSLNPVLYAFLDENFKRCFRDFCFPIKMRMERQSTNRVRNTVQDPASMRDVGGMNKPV
T2 sequence (P42866 whole entry, looked up): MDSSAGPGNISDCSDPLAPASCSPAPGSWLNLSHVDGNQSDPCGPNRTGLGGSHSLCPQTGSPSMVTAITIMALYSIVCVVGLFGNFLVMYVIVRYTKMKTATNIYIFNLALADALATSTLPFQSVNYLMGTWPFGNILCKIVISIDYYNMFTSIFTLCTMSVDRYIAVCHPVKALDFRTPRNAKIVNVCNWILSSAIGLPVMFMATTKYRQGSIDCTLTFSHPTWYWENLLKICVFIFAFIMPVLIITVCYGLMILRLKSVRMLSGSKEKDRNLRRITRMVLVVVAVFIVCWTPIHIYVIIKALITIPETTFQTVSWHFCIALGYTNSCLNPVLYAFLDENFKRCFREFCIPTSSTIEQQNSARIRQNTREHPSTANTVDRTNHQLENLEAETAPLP

[3] = target: T1, Opioid receptors; mu/kappa/delta; conditions: Cavia porcellus; Ileum
Description: Opioid receptors antagonist activity in smooth-muscle tissue of guinea pig ileum (GPI) in presence of NLX

[4] = target: Opioid receptor (Mus musculus, UniProt P42866+P32300+P33534); assay: Opioid receptors antagonist activity in smooth-muscle tissue mouse vas deferens (MVD); format: functional, tissue-based
[5] = target: T2, Opioid receptor (Mus musculus); assay: Opioid receptors antagonist activity in smooth-muscle tissue mouse vas deferens (MVD) in presence of CTAP; format: functional, tissue-based
[6] = target: T2, Opioid receptor (Mus musculus); assay: Opioid receptors antagonist activity in smooth-muscle tissue mouse vas deferens (MVD) in presence of NLX; format: functional, tissue-based
[7] = target: Kappa-type opioid receptor (Cavia porcellus, UniProt P41144); assay: Binding affinity against Opioid receptor kappa 1 in guinea pig brain homogenate using [3H]- U-69593 as radioligand; format: tissue-based
Kappa-type opioid receptor, sequence (P41144 whole entry): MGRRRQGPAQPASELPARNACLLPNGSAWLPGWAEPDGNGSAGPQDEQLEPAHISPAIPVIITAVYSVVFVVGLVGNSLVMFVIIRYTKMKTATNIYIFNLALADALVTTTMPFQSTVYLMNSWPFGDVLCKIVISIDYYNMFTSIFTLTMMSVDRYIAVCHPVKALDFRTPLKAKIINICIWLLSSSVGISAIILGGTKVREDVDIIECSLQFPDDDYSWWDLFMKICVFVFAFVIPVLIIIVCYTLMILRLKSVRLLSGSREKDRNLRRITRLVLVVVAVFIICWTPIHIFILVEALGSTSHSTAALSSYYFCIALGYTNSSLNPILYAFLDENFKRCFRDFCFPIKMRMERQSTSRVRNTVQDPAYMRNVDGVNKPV

[8] = target: Mu-type opioid receptor (Cavia porcellus, UniProt P97266); assay: Binding affinity against Opioid receptor mu 1 in guinea pig brain homogenate using [3H]- PL-17 as radioligand; format: tissue-based
Mu-type opioid receptor, sequence (P97266 whole entry): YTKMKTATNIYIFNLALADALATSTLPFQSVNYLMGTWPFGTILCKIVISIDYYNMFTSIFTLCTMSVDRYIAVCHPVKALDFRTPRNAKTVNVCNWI

[9] = target: T1, Opioid receptors; mu/kappa/delta; conditions: Cavia porcellus; Ileum; remark: listed apart in the source
Description: Opioid receptors antagonist activity in smooth-muscle tissue of guinea pig ileum (GPI) in presence of CTAP

T1 sequence (P35372 whole entry, looked up): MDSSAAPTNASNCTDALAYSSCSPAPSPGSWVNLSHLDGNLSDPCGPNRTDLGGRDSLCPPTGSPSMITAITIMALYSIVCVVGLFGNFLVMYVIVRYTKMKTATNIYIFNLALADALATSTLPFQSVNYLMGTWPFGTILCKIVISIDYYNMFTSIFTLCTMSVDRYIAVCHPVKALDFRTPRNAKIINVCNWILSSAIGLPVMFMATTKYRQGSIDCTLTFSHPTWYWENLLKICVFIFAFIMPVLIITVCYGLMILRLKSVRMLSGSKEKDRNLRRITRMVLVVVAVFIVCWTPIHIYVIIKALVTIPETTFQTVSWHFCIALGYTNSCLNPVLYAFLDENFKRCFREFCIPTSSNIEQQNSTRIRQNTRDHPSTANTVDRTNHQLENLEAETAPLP
T1 sequence (P41143 whole entry, looked up): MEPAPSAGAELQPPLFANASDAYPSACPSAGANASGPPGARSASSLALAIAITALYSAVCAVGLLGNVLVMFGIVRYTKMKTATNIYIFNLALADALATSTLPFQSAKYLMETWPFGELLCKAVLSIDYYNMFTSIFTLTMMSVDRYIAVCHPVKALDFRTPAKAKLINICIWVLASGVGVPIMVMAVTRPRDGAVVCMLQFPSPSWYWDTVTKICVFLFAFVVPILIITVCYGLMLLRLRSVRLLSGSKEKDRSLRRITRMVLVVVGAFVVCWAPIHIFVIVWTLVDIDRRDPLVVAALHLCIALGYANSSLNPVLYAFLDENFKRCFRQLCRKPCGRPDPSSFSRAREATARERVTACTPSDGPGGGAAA
T1 sequence (P41145 whole entry, looked up): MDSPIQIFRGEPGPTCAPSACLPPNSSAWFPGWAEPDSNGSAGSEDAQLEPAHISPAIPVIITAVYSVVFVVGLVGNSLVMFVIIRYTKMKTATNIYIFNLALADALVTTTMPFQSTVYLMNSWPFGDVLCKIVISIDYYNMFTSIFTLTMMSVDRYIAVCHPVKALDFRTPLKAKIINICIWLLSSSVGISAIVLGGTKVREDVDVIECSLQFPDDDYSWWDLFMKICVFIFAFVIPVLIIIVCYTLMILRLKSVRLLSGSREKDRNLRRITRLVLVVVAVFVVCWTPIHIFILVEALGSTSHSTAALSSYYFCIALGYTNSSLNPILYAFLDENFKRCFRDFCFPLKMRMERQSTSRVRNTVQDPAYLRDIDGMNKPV

| Compound | IC50 [1] | Ke [2] | Ke [3] | IC50 [4] | Ke [5] | Ke [6] | IC50 [7] | IC50 [8] | Ke [9] |
| --- | --- | --- | --- | --- | --- | --- | --- | --- | --- |
| CC(C)C[C@@H]1NC(=O)[C@H](CCCCN)NC(=O)[C@@H]2CCCN2C(=O)[C@H](CCCN=C(N)N)NC(=O)[C@H](NC(=O)[C@H](CCCN=C(N)N)NC(=O)[C@H](CCCN=C(N)N)NC(=O)[C@H](CC(C)C)NC(=O)[C@H](Cc2ccccc2)NC(=O)CNC(=O)CNC(=O)[C@@H](N)Cc2ccc(O)cc2)CSSC[C@@H](C(N)=O)NC1=O | 2.27 nM | 667 nM | 32.3 nM | 24.5 nM | 370 nM | 30.3 nM | – | – | – |
| CC[C@H](C)[C@H](NC(=O)[C@H](CCCNC(=N)N)NC(=O)[C@H](CCCNC(=N)N)NC(=O)[C@H](CC(C)C)NC(=O)[C@H](Cc1ccccc1)NC(=O)CNC(=O)CNC(=O)[C@@H](N)Cc1ccc(O)cc1)C(=O)N[C@@H](CCCNC(=N)N)C(=O)N1CCC[C@H]1C(=O)N[C@@H](CCCCN)C(=O)N[C@@H](CC(C)C)C(=O)N[C@@H](CCCCN)C(=O)N[C@@H](Cc1c[nH]c2ccccc12)C(=O)N[C@@H](CC(=O)O)C(=O)N[C@@H](CC(N)=O)C(=O)N[C@@H](CCC(N)=O)C(=O)O [DYNORPHIN A (1-17)] | – | – | – | – | – | – | 0.231 nM | – | – |
| CC(C)C[C@H](NC(=O)[C@H](Cc1ccccc1)NC(=O)CNC(=O)CNC(=O)[C@@H](N)Cc1ccc(O)cc1)C(=O)N[C@@H](CCCN=C(N)N)C(=O)N[C@@H](CCCN=C(N)N)C(=O)N[C@@H]1CSSC[C@H](C(N)=O)NC(=O)[C@H](CC(C)C)NC(=O)[C@H](CCCCN)NC(=O)[C@@H]2CCCN2C(=O)[C@H](CCCN=C(N)N)NC1=O | 1.75 nM | 1000 nM | 233 nM | 19.5 nM | 1430 nM | 18.2 nM | – | 0.362 nM | – |
| CC[C@H](C)[C@@H]1NC(=O)[C@H](CCCN=C(N)N)NC(=O)[C@H](CCCN=C(N)N)NC(=O)[C@@H](NC(=O)[C@H](Cc2ccccc2)NC(=O)CNC(=O)CNC(=O)[C@@H](N)Cc2ccc(O)cc2)CSSC[C@@H](C(N)=O)NC(=O)[C@@H]2CCCN2C(=O)[C@H](CCCN=C(N)N)NC1=O (H-YGGFCRRIRPC-NH2; disulfide 5-11) | 1080 nM | 86.2 nM | 66.7 nM | 421 nM | 2000 nM | 80 nM | 0.285 nM | 0.027 nM | – |
| CC(C)C[C@@H]1NC(=O)[C@H](CCCCN)NC(=O)[C@@H]2CCCN2C(=O)[C@H](CCCNC(=N)N)NC(=O)[C@H](NC(=O)[C@H](CCCNC(=N)N)NC(=O)[C@H](CCCNC(=N)N)NC(=O)[C@H](CC(C)C)NC(=O)[C@H](Cc2ccccc2)NC(=O)CNC(=O)CNC(=O)[C@@H](N)Cc2ccc(O)cc2)CSSC[C@@H](C(N)=O)NC1=O | – | – | – | – | – | – | 1.76 nM | 10.3 nM | – |
| CC[C@H](C)[C@H](NC(=O)[C@H](CCCN=C(N)N)NC(=O)[C@H](CCCN=C(N)N)NC(=O)[C@H](CC(C)C)NC(=O)[C@H](Cc1ccccc1)NC(=O)CNC(=O)CNC(=O)[C@@H](N)Cc1ccc(O)cc1)C(=O)N[C@@H](CCCN=C(N)N)C(=O)N1CCC[C@H]1C(=O)N[C@@H](CCCCN)C(=O)N[C@@H](CC(C)C)C(=O)N[C@@H](CCCCN)C(N)=O | 1.7 nM | – | 82 nM | 7.8 nM | – | 100 nM | 0.114 nM | 1.29 nM | 2000 nM |
| CC[C@H](C)[C@H](NC(=O)[C@H](CCCN=C(N)N)NC(=O)[C@H](CCCN=C(N)N)NC(=O)[C@H](CC(C)C)NC(=O)[C@H](Cc1ccccc1)NC(=O)CNC(=O)CNC(=O)[C@@H](N)Cc1ccc(O)cc1)C(=O)N[C@@H](CCCN=C(N)N)C(=O)N1CCC[C@H]1C(=O)N[C@@H](CCCCN)C(N)=O | 7.5 nM | 625 nM | – | 204 nM | – | 125 nM | – | 1.08 nM | – |
| C[C@H]1NC(=O)[C@H](CCCN=C(N)N)NC(=O)[C@H](CCCN=C(N)N)NC(=O)[C@@H](NC(=O)[C@H](Cc2ccccc2)NC(=O)CNC(=O)CNC(=O)[C@@H](N)Cc2ccc(O)cc2)CSSC[C@@H](C(N)=O)NC(=O)[C@@H]2CCCN2C(=O)[C@H](CCCN=C(N)N)NC1=O | 4406 nM | 21.3 nM | – | 1660 nM | 500 nM | – | – | – | 50 nM |
| C[C@H]1NC(=O)[C@H](CCCNC(=N)N)NC(=O)[C@H](CCCNC(=N)N)NC(=O)[C@@H](NC(=O)[C@H](Cc2ccccc2)NC(=O)CNC(=O)CNC(=O)[C@@H](N)Cc2ccc(O)cc2)CSSC[C@@H](C(N)=O)NC(=O)[C@@H]2CCCN2C(=O)[C@H](CCCNC(=N)N)NC1=O | – | – | – | – | – | – | 0.391 nM | 2.3 nM | – |
| CC(C)C[C@@H]1NC(=O)[C@H](CCCCN)NC(=O)[C@@H]2CCCN2C(=O)[C@H](CCCN=C(N)N)NC(=O)[C@@H](NC(=O)[C@H](CCCN=C(N)N)NC(=O)[C@H](CCCN=C(N)N)NC(=O)[C@H](CC(C)C)NC(=O)[C@H](Cc2ccccc2)NC(=O)CNC(=O)CNC(=O)[C@@H](N)Cc2ccc(O)cc2)CSSC[C@@H](C(N)=O)NC1=O | 1.3 nM | 156 nM | 38.9 nM | 20.1 nM | 175 nM | 95.2 nM | 0.074 nM | 0.986 nM | – |

Reference: ChEMBL document CHEMBL1124814 (J Med Chem, 1990)
